Measured values from ChEMBL document CHEMBL3132748, “Novel inhibitors of breast cancer relevant kinases Brk and HER2” (Medchemcomm, 2014).
The source made the active and inactive calls. The rule behind the calls is not given here.

Assays:
[1] = molecular target: Receptor tyrosine-protein kinase erbB-2 (Homo sapiens, UniProt P04626); test: Inhibition of human recombinant GST-fused HER2 expressed in baculovirus Sf9 insect cells using poly(Glu,Tyr) as substrate after 60 mins by scintillation counting
[2] = molecular target: T1, Protein-tyrosine kinase 6 (Homo sapiens, UniProt Q13882); test: Inhibition of human recombinant GST-fused Brk expressed in baculovirus Sf9 insect cells using poly(Glu,Tyr) as substrate after 60 mins by scintillation counting
Target sequence in this assay (Q13882 whole entry, the tested form may be a part): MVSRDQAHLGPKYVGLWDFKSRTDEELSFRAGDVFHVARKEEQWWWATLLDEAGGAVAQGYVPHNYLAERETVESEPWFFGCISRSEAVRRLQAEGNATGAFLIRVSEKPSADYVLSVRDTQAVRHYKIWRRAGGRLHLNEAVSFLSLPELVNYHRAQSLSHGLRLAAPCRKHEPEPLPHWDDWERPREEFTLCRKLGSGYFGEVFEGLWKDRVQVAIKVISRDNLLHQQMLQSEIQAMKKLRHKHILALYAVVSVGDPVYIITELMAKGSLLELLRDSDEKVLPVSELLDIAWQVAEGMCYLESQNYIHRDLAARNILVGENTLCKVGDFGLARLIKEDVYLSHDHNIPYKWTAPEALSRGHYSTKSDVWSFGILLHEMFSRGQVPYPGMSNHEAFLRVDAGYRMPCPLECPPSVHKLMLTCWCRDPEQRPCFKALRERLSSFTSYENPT

[3] = molecular target: Mitogen-activated protein kinase 1 (Homo sapiens) (UniProt P28482); test: Inhibition of ERK2 (unknown origin) using RBER-CHKtide as substrate after 60 mins by scintillation counting
MCF7 = test: Antiproliferative activity against human MCF7 cells by SRB assay; format: functional
[4] = molecular target: RAC-alpha serine/threonine-protein kinase (Homo sapiens) (UniProt P31749); test: Inhibition of AKT1 (unknown origin) using GSK3 (14 to 27) as substrate after 60 mins by scintillation counting
Aurora kinase A = molecular target: T2, Aurora kinase A (Homo sapiens, UniProt O14965); test: Inhibition of aurora-A (unknown origin) using tetra(LRRWSLG) as substrate after 60 mins by scintillation counting
T2 sequence (O14965 whole entry): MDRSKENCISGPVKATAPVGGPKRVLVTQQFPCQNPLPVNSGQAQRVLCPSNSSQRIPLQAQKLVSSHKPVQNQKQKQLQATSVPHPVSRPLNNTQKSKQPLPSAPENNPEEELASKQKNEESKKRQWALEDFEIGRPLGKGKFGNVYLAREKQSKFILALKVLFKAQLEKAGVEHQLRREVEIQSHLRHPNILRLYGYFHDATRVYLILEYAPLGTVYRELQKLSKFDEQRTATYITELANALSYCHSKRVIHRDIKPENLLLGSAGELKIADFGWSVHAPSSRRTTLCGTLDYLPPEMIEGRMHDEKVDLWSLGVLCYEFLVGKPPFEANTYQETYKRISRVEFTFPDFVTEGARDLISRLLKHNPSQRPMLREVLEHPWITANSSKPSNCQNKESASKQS

[5] = molecular target: Mitogen-activated protein kinase 10 (Homo sapiens) (UniProt P53779); test: Inhibition of JNK3 (unknown origin) using ATF2 as substrate after 60 mins by scintillation counting
[6] = molecular target: Mitogen-activated protein kinase 8 (Homo sapiens) (UniProt P45983); test: Inhibition of JNK1 (unknown origin) using ATF2 as substrate after 60 mins by scintillation counting
Aurora kinase C = molecular target: T3, Aurora kinase C (Homo sapiens, UniProt Q9UQB9); test: Inhibition of aurora-C (unknown origin) using tetra(LRRWSLG) as substrate after 60 mins by scintillation counting
T3 sequence (Q9UQB9 whole entry): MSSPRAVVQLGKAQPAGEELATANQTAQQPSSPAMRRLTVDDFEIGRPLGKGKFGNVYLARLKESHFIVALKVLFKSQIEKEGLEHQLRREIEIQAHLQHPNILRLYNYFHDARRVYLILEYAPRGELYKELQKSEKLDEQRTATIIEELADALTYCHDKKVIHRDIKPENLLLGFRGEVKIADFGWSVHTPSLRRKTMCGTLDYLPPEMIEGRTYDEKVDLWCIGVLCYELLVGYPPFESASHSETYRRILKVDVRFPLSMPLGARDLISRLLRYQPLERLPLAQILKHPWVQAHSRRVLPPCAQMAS

[7] = molecular target: Epidermal growth factor receptor (Homo sapiens, UniProt P00533); test: Inhibition of EGFR (unknown origin) using poly(Glu,Tyr) as substrate after 60 mins by scintillation counting
[8] = molecular target: T4, Serine/threonine-protein kinase VRK1 (Homo sapiens) (UniProt Q99986); test: Inhibition of VRK1 (unknown origin) using RBER-CHKtide as substrate after 60 mins by scintillation counting
T4 sequence (whole entry): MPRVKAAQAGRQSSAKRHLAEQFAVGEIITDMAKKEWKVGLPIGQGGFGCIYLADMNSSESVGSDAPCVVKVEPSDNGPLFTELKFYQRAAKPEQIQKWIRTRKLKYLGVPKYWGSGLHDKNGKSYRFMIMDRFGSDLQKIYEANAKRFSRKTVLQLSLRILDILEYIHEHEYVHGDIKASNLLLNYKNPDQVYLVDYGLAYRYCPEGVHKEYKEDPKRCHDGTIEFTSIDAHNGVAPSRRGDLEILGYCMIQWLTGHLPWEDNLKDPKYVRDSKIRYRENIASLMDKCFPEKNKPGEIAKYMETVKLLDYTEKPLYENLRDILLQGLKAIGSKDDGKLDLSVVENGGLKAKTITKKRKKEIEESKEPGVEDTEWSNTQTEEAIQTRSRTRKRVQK

[9] = molecular target: Serine/threonine-protein kinase PAK 1 (Homo sapiens) (UniProt Q13153); test: Inhibition of PAK1 (unknown origin) using tetra(LRRWSLG) as substrate after 60 mins by scintillation counting
MDA-MB-468 = test: Antiproliferative activity against human MDA-MB-468 cells by SRB assay; format: functional
[10] = molecular target: RAC-beta serine/threonine-protein kinase (Homo sapiens) (UniProt P31751); test: Inhibition of AKT2 (unknown origin)using GSK3 (14 to 27) as substrate after 60 mins by scintillation counting
[11] = molecular target: T1, Protein-tyrosine kinase 6; test: Inhibition of BRK in human T47D cells assessed as phosphorylation of STAT3 at >100 nM by Western blot analysis; format: cell-based
Target sequence in this assay (Q13882 whole entry, looked up, the tested form may be a part): as the sequence (Q13882 whole entry, the tested form may be a part) above

Chain of Receptor tyrosine-protein kinase erbB-2 (P04626 whole entry, the tested form may be a part): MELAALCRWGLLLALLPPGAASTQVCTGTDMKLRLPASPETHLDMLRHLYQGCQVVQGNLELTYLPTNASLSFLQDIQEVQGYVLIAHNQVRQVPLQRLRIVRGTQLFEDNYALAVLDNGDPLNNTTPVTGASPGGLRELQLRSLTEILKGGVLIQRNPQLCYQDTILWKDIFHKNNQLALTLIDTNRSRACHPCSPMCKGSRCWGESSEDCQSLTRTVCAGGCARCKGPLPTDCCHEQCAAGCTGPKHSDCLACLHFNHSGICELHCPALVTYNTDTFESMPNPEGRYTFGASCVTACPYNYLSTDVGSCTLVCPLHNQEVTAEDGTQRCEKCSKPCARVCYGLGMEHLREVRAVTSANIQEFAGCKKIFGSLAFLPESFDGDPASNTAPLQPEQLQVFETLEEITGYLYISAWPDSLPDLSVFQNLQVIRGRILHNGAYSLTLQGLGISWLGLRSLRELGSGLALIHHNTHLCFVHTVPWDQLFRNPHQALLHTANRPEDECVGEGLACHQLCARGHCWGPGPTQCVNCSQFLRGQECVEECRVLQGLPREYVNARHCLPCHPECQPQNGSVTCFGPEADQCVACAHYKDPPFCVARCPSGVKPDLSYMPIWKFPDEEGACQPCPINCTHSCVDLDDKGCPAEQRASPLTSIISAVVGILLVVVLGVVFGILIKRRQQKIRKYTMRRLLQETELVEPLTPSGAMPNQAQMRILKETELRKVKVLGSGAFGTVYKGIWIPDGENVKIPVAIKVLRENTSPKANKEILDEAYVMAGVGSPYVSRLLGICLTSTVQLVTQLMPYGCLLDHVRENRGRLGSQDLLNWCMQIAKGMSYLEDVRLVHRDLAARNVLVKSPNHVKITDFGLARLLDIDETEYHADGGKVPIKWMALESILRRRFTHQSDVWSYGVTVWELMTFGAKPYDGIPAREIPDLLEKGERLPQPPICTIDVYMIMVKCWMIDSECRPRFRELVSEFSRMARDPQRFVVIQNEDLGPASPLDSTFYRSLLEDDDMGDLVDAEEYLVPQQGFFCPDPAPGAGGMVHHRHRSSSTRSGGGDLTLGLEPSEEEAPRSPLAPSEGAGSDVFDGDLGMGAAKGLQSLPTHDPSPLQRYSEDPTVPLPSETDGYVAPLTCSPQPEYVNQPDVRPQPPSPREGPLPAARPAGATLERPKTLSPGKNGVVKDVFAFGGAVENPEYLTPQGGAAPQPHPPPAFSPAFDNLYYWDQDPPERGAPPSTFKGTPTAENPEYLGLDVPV
Chain of Serine/threonine-protein kinase PAK 1 (Homo sapiens) (Q13153 whole entry): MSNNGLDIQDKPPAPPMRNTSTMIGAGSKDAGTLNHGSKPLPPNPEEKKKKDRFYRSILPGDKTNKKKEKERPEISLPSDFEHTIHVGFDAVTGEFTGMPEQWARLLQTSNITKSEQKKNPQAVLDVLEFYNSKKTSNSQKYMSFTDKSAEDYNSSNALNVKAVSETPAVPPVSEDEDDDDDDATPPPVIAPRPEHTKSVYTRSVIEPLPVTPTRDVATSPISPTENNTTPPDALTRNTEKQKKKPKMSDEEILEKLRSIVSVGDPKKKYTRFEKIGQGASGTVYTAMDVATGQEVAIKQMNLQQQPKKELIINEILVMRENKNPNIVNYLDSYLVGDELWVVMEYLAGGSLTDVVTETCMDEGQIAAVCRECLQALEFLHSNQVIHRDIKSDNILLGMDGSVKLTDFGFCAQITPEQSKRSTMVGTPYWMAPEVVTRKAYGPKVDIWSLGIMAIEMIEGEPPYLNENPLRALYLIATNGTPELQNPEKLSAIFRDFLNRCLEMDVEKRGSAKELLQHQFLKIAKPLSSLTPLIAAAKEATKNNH
Chain of Mitogen-activated protein kinase 1 (Homo sapiens) (P28482 whole entry): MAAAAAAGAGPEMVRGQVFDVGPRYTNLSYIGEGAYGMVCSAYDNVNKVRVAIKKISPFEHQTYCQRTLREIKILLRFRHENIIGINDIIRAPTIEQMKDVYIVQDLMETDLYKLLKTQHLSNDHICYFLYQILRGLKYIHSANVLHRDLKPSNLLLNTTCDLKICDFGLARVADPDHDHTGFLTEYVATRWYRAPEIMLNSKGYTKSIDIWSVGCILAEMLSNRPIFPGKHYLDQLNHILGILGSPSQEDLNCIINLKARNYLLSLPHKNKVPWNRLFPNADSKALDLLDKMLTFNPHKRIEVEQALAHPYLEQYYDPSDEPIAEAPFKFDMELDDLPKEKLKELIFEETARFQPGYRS
Chain of Epidermal growth factor receptor (P00533 whole entry): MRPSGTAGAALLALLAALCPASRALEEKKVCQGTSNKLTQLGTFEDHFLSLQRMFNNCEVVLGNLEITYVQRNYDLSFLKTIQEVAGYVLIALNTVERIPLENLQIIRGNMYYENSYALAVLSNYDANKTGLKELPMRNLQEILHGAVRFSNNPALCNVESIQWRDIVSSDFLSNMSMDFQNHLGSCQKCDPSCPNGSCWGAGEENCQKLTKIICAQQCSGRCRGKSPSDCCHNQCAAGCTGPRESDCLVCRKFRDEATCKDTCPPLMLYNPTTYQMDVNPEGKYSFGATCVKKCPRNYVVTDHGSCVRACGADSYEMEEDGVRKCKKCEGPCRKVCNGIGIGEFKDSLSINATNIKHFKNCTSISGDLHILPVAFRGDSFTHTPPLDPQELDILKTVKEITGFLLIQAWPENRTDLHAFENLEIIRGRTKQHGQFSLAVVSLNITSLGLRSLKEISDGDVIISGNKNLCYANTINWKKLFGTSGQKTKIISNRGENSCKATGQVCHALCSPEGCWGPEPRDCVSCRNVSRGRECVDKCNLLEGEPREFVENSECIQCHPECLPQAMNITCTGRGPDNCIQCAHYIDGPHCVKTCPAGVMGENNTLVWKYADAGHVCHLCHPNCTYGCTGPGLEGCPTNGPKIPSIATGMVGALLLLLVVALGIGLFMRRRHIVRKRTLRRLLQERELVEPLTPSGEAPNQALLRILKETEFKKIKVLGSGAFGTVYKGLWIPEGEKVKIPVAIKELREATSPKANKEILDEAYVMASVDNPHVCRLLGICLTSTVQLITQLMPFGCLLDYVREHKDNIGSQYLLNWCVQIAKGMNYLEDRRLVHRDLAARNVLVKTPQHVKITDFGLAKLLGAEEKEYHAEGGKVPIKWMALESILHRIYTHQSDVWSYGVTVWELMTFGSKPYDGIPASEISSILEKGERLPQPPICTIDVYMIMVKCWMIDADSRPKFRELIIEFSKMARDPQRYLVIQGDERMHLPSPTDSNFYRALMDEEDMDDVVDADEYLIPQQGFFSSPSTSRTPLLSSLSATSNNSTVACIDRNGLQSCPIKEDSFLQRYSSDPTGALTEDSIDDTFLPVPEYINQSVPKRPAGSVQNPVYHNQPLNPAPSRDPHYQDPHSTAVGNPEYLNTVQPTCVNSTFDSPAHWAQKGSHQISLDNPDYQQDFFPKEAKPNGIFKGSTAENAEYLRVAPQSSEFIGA
Chain of RAC-alpha serine/threonine-protein kinase (Homo sapiens) (P31749 whole entry): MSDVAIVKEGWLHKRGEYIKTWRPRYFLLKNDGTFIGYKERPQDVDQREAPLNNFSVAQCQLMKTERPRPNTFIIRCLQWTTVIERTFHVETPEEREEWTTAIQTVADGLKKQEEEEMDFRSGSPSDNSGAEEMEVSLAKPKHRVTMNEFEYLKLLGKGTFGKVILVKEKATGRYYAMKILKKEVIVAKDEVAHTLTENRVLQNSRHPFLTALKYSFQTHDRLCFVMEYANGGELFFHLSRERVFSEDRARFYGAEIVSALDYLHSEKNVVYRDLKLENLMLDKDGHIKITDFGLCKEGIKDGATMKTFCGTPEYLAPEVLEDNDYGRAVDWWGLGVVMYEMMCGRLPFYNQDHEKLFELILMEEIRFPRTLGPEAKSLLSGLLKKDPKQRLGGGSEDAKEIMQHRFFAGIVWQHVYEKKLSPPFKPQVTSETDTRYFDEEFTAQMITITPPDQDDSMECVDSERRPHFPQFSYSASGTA
Chain of Mitogen-activated protein kinase 8 (Homo sapiens) (P45983 whole entry): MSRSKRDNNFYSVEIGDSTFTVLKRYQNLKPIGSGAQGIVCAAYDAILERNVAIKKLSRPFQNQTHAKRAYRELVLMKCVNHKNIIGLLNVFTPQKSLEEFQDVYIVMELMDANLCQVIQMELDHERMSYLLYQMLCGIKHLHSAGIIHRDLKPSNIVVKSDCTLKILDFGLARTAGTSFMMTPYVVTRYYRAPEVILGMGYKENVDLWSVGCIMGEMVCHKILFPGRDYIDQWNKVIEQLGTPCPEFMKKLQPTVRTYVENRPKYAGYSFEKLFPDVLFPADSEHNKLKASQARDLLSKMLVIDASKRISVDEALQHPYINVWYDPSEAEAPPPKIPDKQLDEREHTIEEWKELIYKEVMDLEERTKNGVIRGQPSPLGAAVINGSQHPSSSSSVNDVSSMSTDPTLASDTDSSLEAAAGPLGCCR

SMILES | IC50 [1] [µM] | IC50 [2] [µM] | further results
CC(=O)c1ccc2[nH]c3nccc(Nc4cccc(N)c4)c3c2c1 | 1.64 | 0.0076 | 
CC(=O)c1ccc2[nH]c3nccc(Nc4cccc([N+](=O)[O-])c4)c3c2c1 | 0.978 | 0.021 | 
COc1cccc(Nc2ccnc3[nH]c4ccc(S(=O)(=O)N5CCOCC5)cc4c23)c1 | 1.24 | 0.0057 | 
CC(=O)c1ccc2[nH]c3nccc(Nc4cccc(Cl)c4)c3c2c1 | 1.15 | 0.013 | 
Oc1cccc(Nc2ccnc3[nH]c4ccccc4c23)c1 | 1.3 |  | inhibition [3]: inactive; GI50 (MCF7): 0.89 µM; inhibition [4]: inactive; IC50 (Aurora kinase A): 0.25 µM; inhibition [5]: inactive; inhibition [6]: inactive; IC50 (Aurora kinase C): 0.259 µM; IC50 [7]: 0.27 µM; inhibition [8]: inactive; inhibition [9]: inactive; GI50 (MDA-MB-468): 1 µM; inhibition [10]: inactive; inhibition [11]: Active
O=S(=O)(c1ccc2[nH]c3nccc(Nc4cccc(OCc5ccccc5)c4)c3c2c1)N1CCOCC1 | 28.3 | 0.055 | 
Oc1cccc(Nc2ccnc3[nH]c4ccc(Br)cc4c23)c1 |  |  | GI50 (MCF7): 0.44 µM; GI50 (MDA-MB-468): 1.35 µM
CCOc1cccc(Nc2ccnc3[nH]c4ccc(S(=O)(=O)N5CCOCC5)cc4c23)c1 | 54.8 | 0.41 | 
Cc1ccccc1Nc1ccnc2[nH]c3ccccc3c12 | 0.978 | > 1000 | 
CCOc1cccc(Nc2ccnc3[nH]c4ccc(S(=O)(=O)N5CCN(CCO)CC5)cc4c23)c1 | 6.53 | 0.479 | 

Continued, in another order:

IC50 [1] [µM] | IC50 [2] [µM] | SMILES | further results
0.39 | 0.0048 | COc1cccc(Nc2ccnc3[nH]c4ccc(S(=O)(=O)N5CCNCC5)cc4c23)c1 | 
0.376 | > 1000 | O=S(=O)(c1ccc2[nH]c3nccc(Nc4cccc(O)c4)c3c2c1)N1CCN(CCO)CC1 | 
0.31 | > 1000 | Clc1ccc(Nc2ccnc3[nH]c4ccccc4c23)cc1 | 
0.013 | > 1000 | CC(=O)c1ccc2[nH]c3nccc(Nc4cccc(O)c4)c3c2c1 | 
0.066 |  | Clc1cccc(Nc2ccnc3[nH]c4ccccc4c23)c1 | 
0.689 | 0.0092 | COc1cccc(Nc2ccnc3[nH]c4ccc(S(=O)(=O)N5CCN(CCO)CC5)cc4c23)c1 | 
0.298 | > 1000 | O=S(=O)(c1ccc2[nH]c3nccc(Nc4cccc(O)c4)c3c2c1)N1CCOCC1 | 
0.576 | 0.026 | CCOc1cccc(Nc2ccnc3[nH]c4ccc(S(=O)(=O)N5CCNCC5)cc4c23)c1 | 
